Entries after “also recorded” stand apart in the source; their conditions may differ. Where two headings read alike, the source gives them in different places.

One series concerns Schistosoma mansoni. Kind of series: In vitro antischistosomal assay on adult schistosomes (parasite viability by microscope). The class given is cell-based, Schistosoma mansoni (BH strain). Particulars: for EC50: Schistosoma mansoni. The procedure:
The in vitro antischistosomal potential of compounds 1–5 was evaluated at various concentrations on S. mansoni (male and female) to determine their effective concentrations at 50% (EC50). Praziquantel (PZQ) was employed as a positive control, while vehicle-treated parasites (0.5% DMSO) were a negative control. […] The S. mansoni (BH strain) life cycle was sustained by passage through Biomphalaria glabrata snails and Swiss mice at the Research Center on Neglected Diseases (Guarulhos University, SP, Brazil). Vero cells from the American Type Culture Collection (ATCC) were cultured in Dulbecco’s modified Eagle medium (DMEM) supplemented with 10% heat-inactivated fetal calf serum and 2 mM L-glutamine (Vitrocell, Campinas, SP, Brazil). C. elegans (strain N2) was maintained at 22 °C on nematode growth medium (NGM) agar seeded with Escherichia coli strain OP50, following standard protocols.[26] The in vitro antischistosomal assay followed established procedures.[27] Adult schistosomes from infected mice were exposed to test samples (0.78–50 μM) in RPMI 1640 medium supplemented with 5% heat-inactivated fetal calf serum, penicillin (100 U/mL), and streptomycin (100 μg/mL) in a 24-well culture plate. Test samples, including PZQ, were dissolved in DMSO and tested in triplicate with experiments repeated three times. A BEL Engineering microscope assessed parasite viability at 24, 48, and 72 h. Statistical analysis was conducted using GraphPad Prism 8.0. CE50 and CC50 values were determined from sigmoid dose–response curves. Selectivity indices were calculated by dividing CC50 values obtained on Vero cells by […].[30]

The nature of series [1]: Cytotoxicity on Vero cells (MTT). It counts as cell-based. Particulars: chlorocebus sabaeus; Vero cells, 72 h, MTT, 6.25–200 μM tested; read-out: Vero cell CC50. The procedure:
(§1) The S. mansoni (BH strain) life cycle was sustained by passage through Biomphalaria glabrata snails and Swiss mice at the Research Center on Neglected Diseases (Guarulhos University, SP, Brazil). Vero cells from the American Type Culture Collection (ATCC) were cultured in Dulbecco’s modified Eagle medium (DMEM) supplemented with 10% heat-inactivated fetal calf serum and 2 mM L-glutamine (Vitrocell, Campinas, SP, Brazil). C. elegans (strain N2) was maintained at 22 °C on nematode growth medium (NGM) agar seeded with Escherichia coli strain OP50, following standard protocols.[26]
(§2) Cytotoxicity was assessed using a previously established method.[20],[28] Cells were plated in 96-well plates and treated with test compounds (6.25–200 μM) and doxorubicin (DXR) at 10 μM as a positive control for 72 h. Cell viability was determined using an MTT solution, and absorbance was measured at 595 nm using a microplate spectrophotometer. The assay was performed in triplicate, and the results are expressed as a percentage of the control.
(§3) Statistical analysis was conducted using GraphPad Prism 8.0. CE50 and CC50 values were determined from sigmoid dose–response curves. Selectivity indices were calculated by dividing CC50 values obtained on Vero cells by CC50 values determined on S. mansoni.[30]

A further series deals with Vero cells. The experiment in a line: Cytotoxicity on Vero cells (MTT). The class given is cell-based. Particulars: for SI (male worms), selectivity index SI = CC50/EC50: Vero CC50 / S. mansoni male EC50. The procedure:
as §1, §2, §3

Another series has as its system Caenorhabditis elegans. The experiment in a line: Toxicity assay with C. elegans (viability by mobility and form). The class given is in vivo, Caenorhabditis elegans (strain N2). The following applies: L4-stage worms, 24 h, 25 to 200 μM. The protocol:
as §1
Toxicity assays with C. elegans were performed as previously described.[29] For 24 h, 26 L4-stage worms were exposed to samples at concentrations ranging from 25 to 200 μM, including levamisole (LVZ) at 10 μM as the positive control. Viability was assessed based on mobility and form using an inverted microscope, with experiments repeated three times.

Where [2] appears, read: adult female worms, in vitro, 72 h, 0.78–50 μM tested, read-out: S. mansoni female EC50.
Setting [3] is: adult male worms, in vitro, 72 h, 0.78–50 μM tested, read-out: S. mansoni male EC50.
Setting [4] is: adult schistosomes, ex vivo / in vitro, read-out: EC50 against S. mansoni (sex not specified).

What is called EC50 is the concentration that produces a half-maximal response. What is called CC50 is the concentration at which the toxic effect on the cells reaches its halfway point. On to `O=C(C1CCCCC1)N1CC(=O)N2CCc3ccccc3C2C1` (centres unmarked) [PZQ, Praziquantel, reference compound], for which the half-maximal effective concentration (EC50) is 1.2 ± 0.1 µM with Schistosoma mansoni (setting [2]), 0.9 ± 0.1 µM with Schistosoma mansoni (setting [3]) and less than 2 µM in the series with Schistosoma mansoni (setting [4]). In addition, the CC50 at 72 h in series [1] was greater than 200 µM. In the series on Vero cells, the “SI (male worms), selectivity index SI = CC50/EC50” value is greater than 250.

For `O=C(O)/C=C/CCCCCCC(=O)O` [Compound 4, (2E)-dec-2-ene-1,10-dioic acid], the EC50 in the series with Schistosoma mansoni (setting [2]), in the series on Schistosoma mansoni (setting [3]) and in the series with Schistosoma mansoni (setting [4]) was greater than 50 µM throughout.

In the case of `CCCCC[C@H](O)[C@@H](O)/C=C/C=C/C(=O)CCCCCC(=O)O` [Compound 1, (8E,10E,12S,13S)-12,13-dihydroxy-7-oxo-octadeca-8,10-dienoic acid], the EC50 in the series with Schistosoma mansoni (setting [2]), in the series on Schistosoma mansoni (setting [3]) and in the series on Schistosoma mansoni (setting [4]) was greater than 50 µM throughout.

With `CCCCCCCC/C=C\[C@@H](O)[C@H](O)CCCCCC(=O)O` (stereo in doubt) [Compound 3, (7R,8R,9Z)-7,8-dihydroxyoctadec-9-enoic acid], the 50% effective concentration (EC50) was 32.6 ± 5.1 µM in the series with Schistosoma mansoni (setting [2]), 8.3 ± 2.4 µM in the series on Schistosoma mansoni (setting [3]) and less than 10 µM with Schistosoma mansoni (setting [4]). Also, in series [1], the half-maximal cytotoxic concentration (CC50) at 72 h was greater than 200 µM. The “SI (female worms), selectivity index SI = CC50/EC50” value in the series with Vero cells (Vero CC50 / S. mansoni female EC50) is greater than 6.13. Besides, in the series with Vero cells, the “SI (male worms), selectivity index SI = CC50/EC50” value is recorded as greater than 24.09. Also, the “Toxicity to mammalian cells (in words)” value with Vero cells (Vero cells, 72 h) is given as “no toxicity”. Also, the “Toxicity to C. elegans (in words)” value with Caenorhabditis elegans is on record as “did not show toxicity; also recorded: no toxicity”.

In the case of `CC1(C)CCC(=O)[C@@]23C(=O)OC4OCC(=CC[C@@H]12)[C@H]43` (some centres unmarked) [Compound 5, marasmeno-1,15-dione], the 50% effective concentration (EC50) in the series on Schistosoma mansoni (setting [2]), with Schistosoma mansoni (setting [3]) and in the series with Schistosoma mansoni (setting [4]) was greater than 50 µM throughout. Further, the “Antiparasitic activity against S. mansoni (in words)” value in the series on Schistosoma mansoni (adult schistosomes, in vitro, up to 50 μM) is listed as “no antiparasitic activity was detected”.

On to `CCCCCC(=O)/C=C/C=C/[C@H](O)[C@@H](O)CCCCCC(=O)O` [Compound 2, (7S,8S,9E,11E)-7,8-dihydroxy-13-oxo-octadeca-9,11-dienoic acid], for which the EC50 in the series on Schistosoma mansoni (setting [2]), in the series with Schistosoma mansoni (setting [3]) and in the series with Schistosoma mansoni (setting [4]) was greater than 50 µM each time.

(Values after PMC11877520, “Anthelmintic Potential of Conjugated Long-Chain Fatty Acids Isolated from the Bioluminescent Mushroom Neonothopanus gardneri” (Journal of Natural Products, 2025).)
